Reference: US7196112B2, “Cell adhesion inhibitors” (Biogen Idec MA Inc., priority 2004, dated 2007)
pIC50, pKd: −log10 of the molar value.

How the values were obtained:
α4β7 = biological target: T1, α4β7 (Homo sapiens, UniProt P13612+P26010); assay: Direct binding assay for α4β7 (VCAM-Ig, JY cells)
T1 construct: host or cells: JY human B-cell line
T1 sequence (P13612 34-1032): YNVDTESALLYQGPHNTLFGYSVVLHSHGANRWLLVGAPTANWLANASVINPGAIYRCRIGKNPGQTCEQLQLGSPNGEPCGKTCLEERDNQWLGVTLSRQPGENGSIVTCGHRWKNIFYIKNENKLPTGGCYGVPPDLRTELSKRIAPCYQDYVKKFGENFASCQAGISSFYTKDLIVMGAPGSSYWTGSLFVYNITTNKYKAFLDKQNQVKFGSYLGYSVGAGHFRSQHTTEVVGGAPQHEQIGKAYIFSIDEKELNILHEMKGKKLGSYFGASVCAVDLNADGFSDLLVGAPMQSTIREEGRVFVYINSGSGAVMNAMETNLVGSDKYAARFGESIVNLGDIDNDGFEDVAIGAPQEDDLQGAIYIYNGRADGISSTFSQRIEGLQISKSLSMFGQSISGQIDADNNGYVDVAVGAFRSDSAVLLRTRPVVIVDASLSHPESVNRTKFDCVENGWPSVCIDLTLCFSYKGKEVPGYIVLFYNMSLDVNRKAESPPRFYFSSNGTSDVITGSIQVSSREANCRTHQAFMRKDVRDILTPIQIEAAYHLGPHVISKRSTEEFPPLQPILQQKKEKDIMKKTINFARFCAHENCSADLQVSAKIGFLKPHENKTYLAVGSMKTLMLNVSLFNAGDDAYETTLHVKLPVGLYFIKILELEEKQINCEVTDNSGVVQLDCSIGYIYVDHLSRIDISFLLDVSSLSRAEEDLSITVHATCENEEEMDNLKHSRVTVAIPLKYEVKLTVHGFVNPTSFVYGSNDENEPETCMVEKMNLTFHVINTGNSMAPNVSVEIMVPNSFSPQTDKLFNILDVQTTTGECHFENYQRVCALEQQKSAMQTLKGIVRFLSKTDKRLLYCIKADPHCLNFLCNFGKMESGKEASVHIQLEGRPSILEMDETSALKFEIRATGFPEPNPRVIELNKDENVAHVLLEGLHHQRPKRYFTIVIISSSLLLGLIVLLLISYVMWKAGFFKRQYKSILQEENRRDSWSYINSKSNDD
T1 sequence (P26010 20-798): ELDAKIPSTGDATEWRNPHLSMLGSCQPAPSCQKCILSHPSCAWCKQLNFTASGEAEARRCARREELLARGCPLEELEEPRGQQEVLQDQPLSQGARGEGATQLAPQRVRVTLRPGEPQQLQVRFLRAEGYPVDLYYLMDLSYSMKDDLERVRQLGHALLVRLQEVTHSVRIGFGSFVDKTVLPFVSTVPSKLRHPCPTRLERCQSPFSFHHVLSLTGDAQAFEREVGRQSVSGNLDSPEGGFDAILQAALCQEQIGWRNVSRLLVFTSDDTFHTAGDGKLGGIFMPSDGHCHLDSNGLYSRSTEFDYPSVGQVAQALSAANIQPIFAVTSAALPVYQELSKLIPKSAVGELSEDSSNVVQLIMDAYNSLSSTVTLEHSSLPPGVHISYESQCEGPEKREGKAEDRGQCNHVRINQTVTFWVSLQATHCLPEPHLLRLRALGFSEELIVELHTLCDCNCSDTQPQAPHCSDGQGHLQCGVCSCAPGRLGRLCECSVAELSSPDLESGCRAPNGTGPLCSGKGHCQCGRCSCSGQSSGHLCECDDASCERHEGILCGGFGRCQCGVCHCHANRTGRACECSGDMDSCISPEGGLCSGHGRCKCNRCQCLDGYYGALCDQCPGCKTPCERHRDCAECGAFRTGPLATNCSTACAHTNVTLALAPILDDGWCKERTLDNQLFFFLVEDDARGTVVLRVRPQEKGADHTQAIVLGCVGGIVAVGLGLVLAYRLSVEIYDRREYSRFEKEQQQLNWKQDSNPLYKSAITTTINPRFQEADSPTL
Protocol: The results presented in Table 3 summarize the integrin selectivity for PEGylated inhibitors. The selectivity of the PEGylated inhibitors for the four integrins indicated were tested in adhesion formats for α1β1 and α2β1, and by direct binding for α4β7. Serial dilutions of each compound were tested and IC50 values calculated from the concentration dependence of the inhibition curves. KD values derived from kinetic data are shown for binding to α4β1.

α4β1 = α4β1 (Homo sapiens, UniProt P05556+P13612); assay: Kinetic binding to α4β1 on Jurkat cells, competition with 35S-B as probe for free α4β1; design: endogenous in cells; host or cells: Jurkat human T-cell line; details: for koff: read-out: koff/10^−4; for kon: read-out: kon/10^6; for pKd: calculated from on- and off-rate constants
Chain of α4β1 (P05556 21-798, one chain of several): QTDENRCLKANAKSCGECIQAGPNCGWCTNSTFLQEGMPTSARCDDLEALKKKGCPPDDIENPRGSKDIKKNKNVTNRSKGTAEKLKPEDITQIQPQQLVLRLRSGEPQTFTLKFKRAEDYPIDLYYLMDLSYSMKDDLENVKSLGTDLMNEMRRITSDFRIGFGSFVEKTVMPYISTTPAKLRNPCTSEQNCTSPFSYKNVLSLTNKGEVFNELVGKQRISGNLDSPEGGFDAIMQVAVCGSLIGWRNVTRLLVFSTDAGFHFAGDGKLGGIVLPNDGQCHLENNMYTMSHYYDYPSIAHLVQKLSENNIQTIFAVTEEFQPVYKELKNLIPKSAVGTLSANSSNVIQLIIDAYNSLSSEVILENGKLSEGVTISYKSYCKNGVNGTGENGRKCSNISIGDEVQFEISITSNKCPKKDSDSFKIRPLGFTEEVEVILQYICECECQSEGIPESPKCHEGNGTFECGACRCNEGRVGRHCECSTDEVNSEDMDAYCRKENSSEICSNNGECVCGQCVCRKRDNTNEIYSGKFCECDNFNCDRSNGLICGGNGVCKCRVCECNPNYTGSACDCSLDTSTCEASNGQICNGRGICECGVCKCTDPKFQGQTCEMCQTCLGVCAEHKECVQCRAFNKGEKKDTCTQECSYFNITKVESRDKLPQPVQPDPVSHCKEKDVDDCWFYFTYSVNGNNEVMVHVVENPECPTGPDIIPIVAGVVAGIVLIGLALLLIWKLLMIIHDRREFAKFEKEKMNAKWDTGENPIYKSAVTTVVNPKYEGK
Protocol: All cells were periodically monitored for high integrin surface expression by FACS analysis. The binding of the various inhibitors to α4β1 were assessed on Jurkat cells by competition using radioactive ^35S-B as a reporter for a 1 occupancy. Jurkat cells were pelleted by centrifugation, washed two times with TBS (50 mM Tris HCl, 150 mM NaCl, 0.1% bovine serum albumin, 2 mM glucose, 10 mM HEPES pH 7.4), suspended at approximately 2×10^6 cells/mL in TBS, and counted using a Neubauer hemocytometer. The cells were further diluted 2×10^6 cells/mL with TBS containing 1 mM CaCl2 and 1 mM MgCl2 and treated with serial dilutions of test compound for 1 hour, and then 5 nM ^35S-B, an amount sufficient to bind all unoccupied receptors, was added for 10 minutes before measuring the bound counts. The cells were then pelleted by centrifugation, resuspended in 100 μL of TBS plus Mn^2+, and transferred to a scintillation vial containing 2.9 mL of ScintiVerse II (Fisher Scientific). Cell-associated radioactivity was quantified by scintillation counting. All studies were performed in siliconized 1.5 mL eppendorf tubes with a standard 1 mL sample volume. Each condition was tested in at least two independent studies. Non-specific binding of ^35S-B to cells was assessed at each cell density and ^35S-B concentration in TBS but in the absence of added metal ion. Specific counts bound were calculated by subtracting non specific counts from total counts bound. Counts bound under these conditions measures integrin that is not occupied by the test compound and is therefore free to bind the ^35S-B. The competition format was also used for kinetic binding studies. Binding and dissociation constants were calculated from α4β1 that remained free to bind the ^35S-B after treatment with test compound.
The affinities of the PEGylated inhibitors for α4β1 were calculated from association and disassociation rate constants using a kinetic analysis. For these studies, Jurkat cells expressing α4β1 (75,000 copies/cell) were treated with the inhibitors and then ^35S-B was added as a probe to detect free α4β1. The levels of bound inhibitor were calculated from a measure of total ^35S-B bound in the absence of added inhibitor and counts bound following inhibitor treatment.

SMILES | pIC50 (α4β7; direct binding) | % bound Ca2+Mg2+ 30 min (α4β1; Ca2+Mg2+, 30 min) [%] | On-rate (α4β1; Jurkat cells, 35S-B probe) [M⁻¹ s⁻¹] | koff (α4β1; Jurkat cells, 35S-B probe) [s⁻¹] | kon (α4β1; Jurkat cells, 35S-B probe) [M⁻¹ s⁻¹] | % bound Mn2+ 60 min (α4β1; Mn2+, 60 min) [%] | pKd (α4β1; Jurkat cells) | affinity higher for α4β1 than for α4β7 (α4β7; α4β1 versus α4β7)
Cc1ccccc1NC(=O)Nc1ccc(CC(=O)N(C)[C@@H](CC(C)C)C(=O)NCC[C@H](NC(=O)C2CCCN2S(=O)(=O)c2ccccc2)C(=O)O)cc1 (stereo partly drawn) [Compound B, 2S-[(1-benzenesulfonyl-pyrrolidine-2S-carbonyl)-amino]-4-[4-methyl-2S-(methyl-{2-[4-(3-o-tolyl-ureido)-phenyl]-acetyl}-amino)-pentanoylamino]-butyric acid] | < 6.00 | >90 | 4e+06 | 1.9e-05 | 4e+06 | >95 | 11.30 | –
Cc1ccccc1NC(=O)Nc1ccc(CC(=O)N(C)[C@@H](CC(C)C)C(=O)NCC[C@H](NC(=O)[C@@H]2CCCN2S(=O)(=O)c2cc(Cl)cc(Cl)c2)C(=O)O)cc1 [Compound R, 2S-{[1-(3,5-dichloro-benzenesulfonyl)-pyrrolidine-2S-carbonyl]-amino}-4-[4-methyl-2S-(methyl-{2-[4-(3-o-tolyl-ureido)-phenyl]-acetyl}-amino)-pentanoylamino]-butyric acid] | – | – | – | 1.2e-05 | 1.5e+06 | – | 11.05 | > 2,000 fold
